In paper PMC8217813, “Bridging Computational Vaccinology and Vaccine Development Through Systematic Identification, Characterization, and Downselection of Conserved and Variable Circumsporozoite Protein CD4 T Cell Epitopes From Diverse Plasmodium falciparum Strains” (Frontiers in Immunology, 2021):
Peptide text beside a SMILES is read from it.

The compounds below were run against T1, HLA A*0101 (Homo sapiens, UniProt P04439, A114D/A174V/A182V/D101N/D185E/E176A/E190D/L180R/Q94H/R68K/S129P/T187R/V100A/V91M/W191G) (assay: biochemical). Conditions: allele A0101; cell-free competition with fluorescently labeled control peptide, fluorescence polarization at 72 hours.
T1 construct: Pure Protein, LLC (ran the assay)
Type: binding

Row | Compound | IC50 (nM)
1 | VTCGNGIQV [Cluster 336_3D7] | Non-Binder
2 | CC[C@H](C)[C@H](N)C(=O)N[C@@H](CCC(=O)O)C(=O)N[C@@H](CCC(N)=O)C(=O)N[C@@H](Cc1ccc(O)cc1)C(=O)N[C@@H](CC(C)C)C(=O)N[C@@H](CCCCN)C(=O)N[C@@H](CCCCN)C(=O)N[C@H](C(=O)N[C@@H](CCC(N)=O)C(=O)N[C@@H](Cc1ccc(O)cc1)C(=O)O)[C@@H](C)CC [Cluster 316_ICS7] (H-IEQYLKKIQY-OH) | Non-Binder
3 | NEEPSDKHIK [308_3D7 (10)] | Non-Binder
4 | CC[C@H](C)[C@H](NC(=O)[C@H](CC(=O)O)NC(=O)[C@H](CC(N)=O)NC(=O)[C@H](C)NC(=O)[C@H](Cc1ccc(O)cc1)NC(=O)[C@H](CC(=O)O)NC(=O)[C@H](CC(C)C)NC(=O)[C@@H](N)CCC(=O)O)C(=O)N[C@@H](CCC(=O)O)C(=O)N[C@@H](CCCCN)C(=O)O [Cluster 357_3D7] (H-ELDYANDIEK-OH) | Non-Binder
5 | KMEKCSSVF [Cluster 370_3D7] | Non-Binder

Same assay, conditions: allele A0101; cell-free competition with fluorescently labeled control peptide, fluorescence polarization at 72 hours; read-out: IC50

Row | Compound | IC50 [µM]
6 | CC[C@H](C)[C@H](NC(=O)[C@H](CC(=O)O)NC(=O)[C@H](CC(N)=O)NC(=O)[C@H](CCC(=O)O)NC(=O)[C@H](Cc1ccc(O)cc1)NC(=O)[C@H](CC(=O)O)NC(=O)[C@H](CC(C)C)NC(=O)[C@@H](N)CCC(N)=O)C(=O)N[C@@H](CCC(=O)O)C(=O)N[C@@H](CCCCN)C(=O)O [Cluster 357_CVX89] (H-QLDYENDIEK-OH) | 726
7 | CC(C)C[C@H](NC(=O)[C@H](CCC(N)=O)NC(=O)[C@H](CC(=O)O)NC(=O)[C@H](CCCCN)NC(=O)[C@@H]1CCCN1C(=O)[C@H](CCCCN)NC(=O)[C@H](CC(=O)O)NC(=O)[C@H](C)NC(=O)[C@@H](N)CO)C(=O)N[C@@H](CC(=O)O)C(=O)O [Cluster 350_CVX65] (H-SADKPKDQLD-OH) | 8.97

These compounds were tested against T2, HLA A*0201 (Homo sapiens, UniProt P04439, D140Y/D185E/D98H/E176V/E277Q/G131W/G231S/I119V/I121R/I166T/I218V/L300P/L318F/N151K/N90K/P208A/P217A/Q86G/Q94H/R138H/R169H/T345S) (assay: biochemical). Conditions: not given.
T2 construct: Pure Protein, LLC (ran the assay)
Type: binding

Row | Compound | IC50 [µM]
8 | CC[C@H](C)[C@H](NC(=O)[C@H](CCCCN)NC(=O)[C@H](CCCCN)NC(=O)[C@H](CC(C)C)NC(=O)[C@@H](N)Cc1ccc(O)cc1)C(=O)N[C@@H](CCC(N)=O)C(=O)N[C@@H](Cc1ccc(O)cc1)C(=O)N[C@@H](CO)C(=O)N[C@@H](CC(C)C)C(=O)O [Cluster 319_ICS7] (H-YLKKIQYSL-OH) | 2.58

Same assay, conditions: allele A0201; cell-free competition with fluorescently labeled control peptide, fluorescence polarization at 72 hours; read-out: IC50

Row | Compound | IC50 [µM]
9 | CC[C@H](C)[C@H](NC(=O)[C@H](CCCCN)NC(=O)[C@H](CC(N)=O)NC(=O)[C@H](CC(C)C)NC(=O)[C@H](Cc1ccc(O)cc1)NC(=O)[C@H](CCC(=O)O)NC(=O)[C@H](CCCCN)NC(=O)[C@@H](NC(=O)[C@@H](N)Cc1c[nH]cn1)[C@@H](C)CC)C(=O)O [Cluster 315_3D7] (H-HIKEYLNKI-OH) | 259

What follows are compounds tested against T3, HLA A*0301 (Homo sapiens, UniProt P04439) (assay: In vitro class I HLA binding competition assay (fluorescence polarization)). Conditions: not given.
T3 construct: Pure Protein, LLC (ran the assay)

Row | Compound | IC50 [µM]
10 | CC(C)C[C@H](NC(=O)[C@@H](N)CCCCN)C(=O)N[C@@H](CCCNC(=N)N)C(=O)N[C@@H](CCCCN)C(=O)N1CCC[C@H]1C(=O)N[C@@H](CCCCN)C(=O)N[C@@H](Cc1c[nH]cn1)C(=O)N[C@@H](CCCCN)C(=O)N[C@@H](CCCCN)C(=O)O [CL1-61] | 3.06
11 | CC[C@H](C)[C@H](NC(=O)[C@@H](N)CCCNC(=N)N)C(=O)N[C@@H](CCCCN)C(=O)N1CCC[C@H]1C(=O)NCC(=O)N[C@@H](CO)C(=O)N[C@@H](C)C(=O)N[C@@H](CC(=O)O)C(=O)N[C@@H](CCCCN)C(=O)O [Cluster 345_CVX79] (H-RIKPGSADK-OH) | 17.7
12 | CC[C@H](C)[C@H](NC(=O)[C@H](CC(=O)O)NC(=O)[C@H](CC(N)=O)NC(=O)[C@H](C)NC(=O)[C@H](Cc1ccc(O)cc1)NC(=O)[C@H](CC(=O)O)NC(=O)[C@H](CC(C)C)NC(=O)[C@@H](N)CCC(=O)O)C(=O)N[C@@H](CCC(=O)O)C(=O)N[C@@H](CCCCN)C(=O)O [Cluster 357_3D7] (H-ELDYANDIEK-OH) | 556
13 | CC[C@H](C)[C@H](NC(=O)[C@@H](N)CCCNC(=N)N)C(=O)N[C@@H](CCCCN)C(=O)N1CCC[C@H]1C(=O)NCC(=O)N[C@@H](CO)C(=O)N[C@@H](C)C(=O)N[C@@H](CC(N)=O)C(=O)N[C@@H](CCCCN)C(=O)O [Cluster 345_3D7] (H-RIKPGSANK-OH) | 21.3

Same assay, conditions: allele A0301; cell-free competition with fluorescently labeled control peptide, fluorescence polarization at 72 hours

Row | Compound | IC50 (nM)
14 | VTCGNGIQV [Cluster 336_3D7] | Non-Binder
15 | IEKKICKMEK [Cluster 364_3D7] | Non-Binder
16 | CC[C@H](C)[C@H](NC(=O)[C@H](CC(=O)O)NC(=O)[C@H](CC(N)=O)NC(=O)[C@H](CCC(=O)O)NC(=O)[C@H](Cc1ccc(O)cc1)NC(=O)[C@H](CC(=O)O)NC(=O)[C@H](CC(C)C)NC(=O)[C@@H](N)CCC(N)=O)C(=O)N[C@@H](CCC(=O)O)C(=O)N[C@@H](CCCCN)C(=O)O [Cluster 357_CVX89] (H-QLDYENDIEK-OH) | Non-Binder
17 | LDYANDIEK [Cluster 358_3D7] | Non-Binder
18 | NANPNANPNK [Cluster 265_3D7] | Non-Binder
19 | QLDYANDIEK [Cluster 357_CVX111] | Non-Binder
20 | KHIKEYLNK [Cluster 314_3D7] | Non-Binder

These compounds were tested against T4, HLA B*0702 (Homo sapiens, UniProt P01889) (assay: biochemical). Conditions: allele B0702; cell-free competition with fluorescently labeled control peptide, fluorescence polarization at 72 hours.
T4 construct: Pure Protein, LLC (ran the assay)
Type: binding

Row | Compound | IC50 (nM)
21 | KPGSADKPKD [347_CVX69 (10)] | Non-Binder
22 | NPNVDPNANP [Cluster 107_3D7] | Non-Binder
23 | KPGSANKPKD [Cluster 347_3D7] | Non-Binder
24 | NPNANPNAN [131_3D7 (9)] | Non-Binder
25 | SPCSVTCGNG [Cluster 332_3D7] | Non-Binder
26 | NPNANPNANP [131_3D7 (10)] | Non-Binder
27 | KMEKCSSVF [Cluster 370_3D7] | Non-Binder

Same assay, conditions: allele B0702; cell-free competition with fluorescently labeled control peptide, fluorescence polarization at 72 hours; read-out: IC50

Row | Compound | IC50 [µM]
28 | CSCC[C@H](N)C(=O)N1CCC[C@H]1C(=O)N[C@@H](CC(N)=O)C(=O)N[C@@H](CC(=O)O)C(=O)N1CCC[C@H]1C(=O)N[C@@H](CC(N)=O)C(=O)N[C@@H](CCCNC(=N)N)C(=O)N[C@@H](CC(N)=O)C(=O)N[C@H](C(=O)O)C(C)C [Cluster 285_3D7] | 511
29 | C[C@H](NC(=O)[C@H](CO)NC(=O)CNC(=O)[C@@H]1CCCN1C(=O)[C@@H](N)CCCCN)C(=O)NCC(=O)N[C@@H](CCCCN)C(=O)N[C@@H](CO)C(=O)N[C@@H](CCCCN)C(=O)O [347_CVX36 (9)] (H-KPGSAGKSK-OH) | 53.1
30 | CC[C@H](C)[C@H](NC(=O)[C@H](CCCNC(=N)N)NC(=O)[C@@H](NC(=O)[C@@H](N)CCC(N)=O)C(C)C)C(=O)N[C@@H](CCCCN)C(=O)N1CCC[C@H]1C(=O)NCC(=O)N[C@@H](CO)C(=O)N[C@@H](C)C(=O)O [Cluster 343_3D7] (H-QVRIKPGSA-OH) | 134

The compounds below were run against HLA B*4402 (Homo sapiens, UniProt P01889, A223V/A65T/A93T/A95T/D201E/D98Y/E176V/E187L/E204Q/E69K/G107R/H137Y/K202T/L105A/L119I/N104T/N87E/Q56L/Q94N/R106L/R155S/R180D/S101N/S121R/S35A/S48T/T118I/V36M/W191S/Y140D/Y91S) (assay: In vitro class I HLA binding competition assay (fluorescence polarization)). Conditions: allele B4402; cell-free competition with fluorescently labeled control peptide, fluorescence polarization at 72 hours.
Procedure: The cell-free class I HLA binding assay in use at Pure Protein, LLC allows for in vitro quantification of peptide-HLA binding affinity in a competition format. In this assay, a fluorescently labeled, high binding, control peptide is loaded onto 384-well ½-area plates along with unlabeled experimental peptides. To remove endogenous peptides and render the HLA A and B molecules receptive to binding, HLA is heated at 53°C for 15 minutes and immediately added to the assay. The mixture is then allowed to stand for three days. Once the mixture has reached steady equilibrium (at 72 hours), displacement of the high binding control peptide is measured through Fluorescence Polarization. Binding of experimental peptides is expressed as the percent inhibition of the labeled control peptide (experimental fluorescence / control fluorescence, multiplied by 100). The percent inhibition values for each experimental peptide (across a range of molar concentrations) are used to calculate the concentration which inhibits 50% of the labeled control peptide’s specific binding. This value is referred to as the peptide’s IC50.

Row | Compound | IC50 (nM) | IC50 [µM]
31 | NEEPSDKHI [308_3D7(9)] | Non-Binder | 
32 | CSCC[C@H](N)C(=O)N1CCC[C@H]1C(=O)N[C@@H](CC(N)=O)C(=O)N[C@@H](CC(=O)O)C(=O)N1CCC[C@H]1C(=O)N[C@@H](CC(N)=O)C(=O)N[C@@H](CCCNC(=N)N)C(=O)N[C@@H](CC(N)=O)C(=O)N[C@H](C(=O)O)C(C)C [Cluster 285_3D7] | Non-Binder | 
33 | CC[C@H](C)[C@H](N)C(=O)N[C@@H](CCC(=O)O)C(=O)N[C@@H](CCC(N)=O)C(=O)N[C@@H](Cc1ccc(O)cc1)C(=O)N[C@@H](CC(C)C)C(=O)N[C@@H](CCCCN)C(=O)N[C@@H](CCCCN)C(=O)N[C@H](C(=O)N[C@@H](CCC(N)=O)C(=O)N[C@@H](Cc1ccc(O)cc1)C(=O)O)[C@@H](C)CC [Cluster 316_ICS7] (H-IEQYLKKIQY-OH) |  | 157
34 | C[C@H](NC(=O)[C@H](CC(N)=O)NC(=O)[C@H](CC(N)=O)NC(=O)[C@H](C)NC(=O)[C@H](CC(N)=O)NC(=O)[C@H](C)NC(=O)[C@H](CC(N)=O)NC(=O)[C@H](CCC(=O)O)NC(=O)[C@@H](N)CC(=O)O)C(=O)O [Cluster 294_CVX311] (H-DENANANNA-OH) |  | 896
35 | NEEPSDKHIK [308_3D7 (10)] | Non-Binder | 
36 | CC[C@H](C)[C@H](NC(=O)[C@H](CCCCN)NC(=O)[C@H](CCCCN)NC(=O)[C@H](CCC(=O)O)NC(=O)[C@@H](NC(=O)[C@H](CC(=O)O)NC(=O)[C@H](CC(N)=O)NC(=O)[C@H](CCC(=O)O)NC(=O)[C@@H](N)Cc1ccc(O)cc1)[C@@H](C)CC)C(=O)O [Cluster 360_CVX298] (H-YENDIEKKI-OH) |  | 7.36
37 | KEYLNKIQNS [Cluster 317_3D7] | Non-Binder | 
38 | TEYLKKIQN [Cluster 317_ICS2] | Non-Binder | 
39 | KDELDYENDI [Cluster 355_CVX124] | Non-Binder | 
40 | DENANANSA [Cluster 294_3D7] | Non-Binder | 
41 | CSCC[C@H](N)C(=O)N[C@@H](CCC(=O)O)C(=O)N[C@@H](CCCCN)C(=O)N[C@@H](CS)C(=O)N[C@@H](CO)C(=O)N[C@@H](CO)C(=O)N[C@H](C(=O)N[C@@H](Cc1ccccc1)C(=O)N[C@@H](CC(N)=O)C(=O)O)C(C)C [Cluster 371_3D7] (H-MEKCSSVFN-OH) |  | 143
42 | TEWSPCSVT [Cluster 329_3D7] | Non-Binder | 
43 | NEEPSDQHI [Cluster 308_CVX99] | Non-Binder | 
44 | CC[C@H](C)[C@H](NC(=O)[C@H](CC(=O)O)NC(=O)[C@H](CC(N)=O)NC(=O)[C@H](C)NC(=O)[C@H](Cc1ccc(O)cc1)NC(=O)[C@H](CC(=O)O)NC(=O)[C@H](CC(C)C)NC(=O)[C@H](CCC(=O)O)NC(=O)[C@@H](N)CC(=O)O)C(=O)O [Cluster 356_3D7] (H-DELDYANDI-OH) |  | 277
